Laboratory results: patent US5605921A, “Triazole derivatives and salts thereof, and antifungal agent containing the same” (Toyama Chemical Co., Ltd., priority 1991, dated 1997)
Converted amounts (≈) assume the structure as drawn.

Tests used:
[1] = tested on: Candida albicans ON28; assay: Minimum inhibitory concentration (MIC) against Candida albicans ON28; assay type: cell-based; details: ON28, 72 h, TC broth medium, 10^4 spores/ml, 37° C., 3 days
Procedure: (§1) MIC was determined in accordance with the method of M. S. Marriott [25th Interscience Conference on Antimicrobial Agents and Chemotherapy, p. 243 (1985)].
(§2) Candida albicans ON28 was cultured in a sabouraud dextrose agar medium containing 10 g of neopeptone, 20 g of glucose and 15 g of agar per liter, at 30° C. for 1-2 days. The yeast cells were suspended in sterile distilled water. Separately, Aspergillus fumigatus IFO8868 was cultured in a potato dextrose agar medium (manufactured by Nissui Pharmaceutical Co., Ltd.) at 30° C. until the conidia were formed abundantly. The formed conidia were suspended in a sterile physiological saline containing 0.1% of Tween 80. Each of the Candida albicans suspension and the Aspergillus fumigatus suspension was inoculated into a TC broth medium (containing 1.17 g of an yeast carbon base, 0.25 g of ammonium sulfate, 2.0 ml of a 50-fold concentrate of L-glutamic acid-containing MEM amino acid, 20 ml of a 0.5M phosphate buffer of pH 7.5 and 1.33 ml of 7.5% sodium hydrogencarbonate per 100 ml) containing a test compound, so that the final fungal amount became 10^4 spores/ml. Then, culture was conducted at 37° C. for 3 days. Thereafter, the growth of fungi was examined. The minimum concentration of test compound at which the growth of fungi had been inhibited, was taken as MIC (μg/ml).

[2] = tested on: Aspergillus fumigatus IFO8868; assay: Therapeutic effect, oral, mice infected with Aspergillus fumigatus IFO8868 (4), Table 2d; assay type: in vivo; details: average survival days of Ketoconazole taken as 100; Aspergillus fumigatus 5.8×10^6 cells/mouse i.v.; 0.8 mg/mouse oral, 2 hours after infection and once daily for six consecutive days; 10 days observation; 10 mice
Procedure: (4) The therapeutic effects of the present compounds, when they were administered orally, were examined using mice infected with Aspergillus fumigatus IFO8868.
(§3) Aspergillus fumigatus IFO8868 was injected in a proportion of 5.8×10^6 cells/mouse to a group of 10 ICR strain male mice (weight: 19-21 g) intravenously at the tails, whereby the mice were infected with the fungi. […] The relative therapeutic index of the test compound was determined from the average survival days.
The results are shown in Table 2d, in which the relative therapeutic index of each test compound is a value calculated by taking the average survival days of Ketoconazole as 100.

[3] = tested on: Candida albicans ON28; assay: Therapeutic effect, oral, mice infected with Candida albicans ON28 (3), Table 2c; assay type: in vivo, ICR strain male mice infected with Candida albicans ON28; details: average survival days of Ketoconazole taken as 100; Candida albicans 5.7×10^6 cells/mouse i.v.; 0.1 mg/mouse oral, 2 hours after infection; 10 days observation; 10 mice
Procedure: (3) The therapeutic effects of the present compounds, when they were administered orally, were examined using mice infected with Candida albicans ON28.
as §3, with “Candida albicans ON28” for “Aspergillus fumigatus IFO8868”, “5.7×10^6” for “5.8×10^6”
The results are shown in Table 2c, in which the relative therapeutic index of each test compound is a value calculated by taking the average survival days Ketoconazole as 100.

[4] = tested on: Aspergillus fumigatus IFO8868; assay: Minimum inhibitory concentration (MIC) against Aspergillus fumigatus IFO8868; assay type: cell-based; details: IFO8868, 72 h, TC broth medium, 10^4 spores/ml, 37° C., 3 days
Procedure: as §1, §2

[5] = Acute toxicity in mice, intravenous; assay type: in vivo; details: intravenous at the tail, ICR strain male mice, group of 5; 50% solution in polyethylene glycol 300
Procedure: Each of the compounds of Examples 10, 12, 19, 79, 142 and 146 was administered to a group of 5 ICR strain male mice (weight: 29-31 g) intravenously at the tails, and the acute toxicity of each compound was examined.
Each compound was administered in the form of a 50% solution in polyethylene glycol 300.

SMILES | MIC [1] [µg/mL] | Relative therapeutic index [2] | Relative therapeutic index [3] | MIC [4] [µg/mL] | dose up to which no dead case occurred (acute toxicity) [5] [mg/kg]
CNC(=O)C(F)(F)C(O)(Cn1cncn1)c1ccc(F)cc1F (stereo not drawn) [Example 11] | 0.2 (≈ 0.602 µM) | 174 | 423 | 100 (≈ 301 µM) | 
N#CCc1ccc(NC(=O)C(F)(F)C(O)(Cn2cncn2)c2ccc(F)cc2F)cc1 (stereo not drawn) [Example 138] | 0.1 (≈ 0.231 µM) |  |  | 12.5 (≈ 28.8 µM) | 
O=C(NC1CC1)C(F)(F)C(O)(Cn1cncn1)c1ccc(F)cc1F (single isomer, unassigned) [Example 145] | 0.1 (≈ 0.279 µM) | 353 | 409 | 12.5 (≈ 34.9 µM) | 
CCCCNC(=O)C(F)(F)C(O)(Cn1cncn1)c1ccc(F)cc1F (stereo not drawn) [Example 114] | 0.05 (≈ 0.134 µM) |  |  | 12.5 (≈ 33.4 µM) | 
CCNC(=O)C(F)(F)C(O)(Cn1cncn1)c1ccc(F)cc1F (single isomer, unassigned) [Example 144] | 0.1 (≈ 0.289 µM) |  |  | 6.25 (≈ 18 µM) | 
CCNC(=O)C(F)(F)C(O)(Cn1cncn1)c1ccccc1 (stereo not drawn) [Example 69] | 0.39 (≈ 1.26 µM) |  |  | 50 (≈ 161 µM) | 
CNC(=O)C(F)(F)C(O)(Cn1cncn1)c1ccc(F)cc1Cl (single isomer, unassigned) [Example 147] | 0.1 (≈ 0.287 µM) | 526 | 414 | 6.25 (≈ 17.9 µM) | 
CCNC(=O)C(F)(F)C(O)(Cn1cncn1)c1ccccc1Cl (stereo not drawn) [Example 75] | 0.2 (≈ 0.58 µM) |  |  | 6.25 (≈ 18.1 µM) | 
CCNC(=O)C(F)(F)C(O)(Cn1cncn1)c1cc(F)c(F)cc1F (stereo not drawn) [Example 88] | 0.2 (≈ 0.549 µM) |  |  | 50 (≈ 137 µM) | 
O=C(Nc1ccc(Cl)cc1)C(F)(F)C(O)(Cn1cncn1)c1ccc(F)cc1F (stereo not drawn) [Example 42, N-(4-chlorophenyl)-3-(2,4-difluorophenyl)-2,2-difluoro-3-hydroxy-4-(1H-1,2,4-triazol-1-yl)butanamide] | ≤ 0.05 |  |  | 50 (≈ 117 µM) | 
NC(=O)C(F)(F)C(O)(Cn1cncn1)c1ccc(F)cc1Cl (single isomer, unassigned) [Example 146] | 0.39 (≈ 1.17 µM) | 500 | 418 | 50 (≈ 149 µM) | ≥ 200
CC1(NC(=O)C(F)(F)C(O)(Cn2cncn2)c2ccc(F)cc2F)CC1 (stereo not drawn) [Example 4] | 0.1 (≈ 0.269 µM) |  |  | 50 (≈ 134 µM) | 
NC(=O)C(F)(Cc1ccccc1)C(O)(Cn1cncn1)c1ccc(F)cc1F (stereo not drawn) [Example 56] | 0.39 (≈ 0.999 µM) |  |  | 100 (≈ 256 µM) | 
O=C(NC1CC1)C(F)(F)C(O)(Cn1cncn1)c1ccccc1F (stereo not drawn) [Example 8, N-cyclopropyl-2,2-difluoro-3-(2-fluorophenyl)-3-hydroxy-4-(1H-1,2,4-triazol-1-yl)butanamide] | 0.78 (≈ 2.29 µM) |  |  | 25 (≈ 73.5 µM) | 
O=C(NC1CCCC1)C(F)(F)C(O)(Cn1cncn1)c1ccc(F)cc1F (stereo not drawn) [Example 20] | ≤ 0.05 |  |  | 100 (≈ 259 µM) | 
NC(=O)C(F)(F)C(O)(Cn1cncn1)c1ccc(F)cc1F (single isomer, unassigned) [Example 142] | 0.78 (≈ 2.45 µM) | 216 | 405 | 100 (≈ 314 µM) | ≥ 200
O=C(NCc1ccc(Cl)cc1)C(F)(F)C(O)(Cn1cncn1)c1ccc(F)cc1F (stereo not drawn) [Example 22] | ≤ 0.05 |  |  | 12.5 (≈ 28.2 µM) | 
CCNC(=O)C(F)(F)C(O)(Cn1cncn1)c1cc(F)ccc1F (stereo not drawn) [Example 117] | 0.39 (≈ 1.13 µM) |  |  | 25 (≈ 72.2 µM) | 
CC(C)CNC(=O)C(F)(F)C(O)(Cn1cncn1)c1ccc(F)cc1F (stereo not drawn) [Example 35] | ≤ 0.05 |  |  | 25 (≈ 66.8 µM) | 
O=C(NC1CC1)C(F)(F)C(O)(Cn1cncn1)c1ccc(Cl)cc1Cl (stereo not drawn) [Example 85] | 0.1 (≈ 0.256 µM) |  |  | 12.5 (≈ 32 µM) | 
CNC(=O)C(F)(F)C(O)(Cn1cncn1)c1ccccc1Cl (stereo not drawn) [Example 74] | 0.78 (≈ 2.36 µM) |  |  | 12.5 (≈ 37.8 µM) | 
